# Ends that are not written are not given here.
# Columns and labels:
# porcine pepsin = biological target: T1, porcine pepsin (Sus scrofa, UniProt P00791); assay: In vitro simulated gastric digestion (G60); assay type: in vitro ADME; settings: 60 min
# T1 construct: purchased Sigma-Aldrich (Madrid, Spain)
# Procedure: For the in vitro simulated peptide GI digestion, a two-stage hydrolysis process was carried out according to Martos et al.. […] was dissolved in simulated gastric fluid (35 mM NaCl at pH 2 for 15 min) and posteriorly subjected to digestion by porcine pepsin (E.C. 3.4.23.1, 3440 units/mg) at an enzyme/substrate ratio of 1: 20 w/w at 37 °C for 60 min. Gastric digestion with pepsin was stopped by adding 1 M NaHCO3 and pH was adjusted to 7.0 with NaOH 1 M (final protein concentration of 5 mg/mL). Aliquots of this gastric digest were collected (G60) and stored at −20 °C until analysis. Duodenal digestions were performed by using, as the starting material, the obtained gastric digests, with the addition of 1 M CaCl2, 0.25 M bis-Tris pH 6.5, 0.25 M bis-Tris pH 6.5, and a 0.125 M bile salts mixture containing equimolar quantities of sodium taurocholate and glycodeoxycholic acid. Posteriorly, the duodenal enzymes trypsin (EC 232-650-8, 10100 BAEE units/mg protein), α-chymotrypsin (EC 232-671-2; 55 units/mg protein), porcine pancreatic lipase (EC 232-619-9) and colipase (EC 259-490-1), prepared in 35 mM NaCl adjusted to pH 7, were added to the solution. Duodenal digestion was carried out at pH 7, 37 °C during 60 (D60). Then, enzymes were inactivated by heating at 95 °C for 10 min in a water bath, followed by cooling to room temperature. Triplicates of aliquots at each time point were collected and stored at −20 °C until analysis.
# Samples obtained from in vitro peptide simulated digestion and Caco-2 monolayers were diluted 10 times with water (0.1% FA) and centrifuged (15,000 rpm, 15 min, 4 °C). Supernatants were directly analyzed by UHPLC-HRMS to avoid the loss of polar peptide fragments. Extensive clean-up or pre-concentration procedures were not necessary due to the high concentration of peptide and low matrix complexity than plasma samples.
# The obtained purified solutions from plasma and peptide digests G60 and D60 and from AP and BL chambers in Caco-2 experiment were analyzed using a UHPLC 1290 Infinity II Series coupled to a QqQ 6490 Series (Agilent Technologies, Santa Clara, CA, USA) for tandem mass experiments or a qTOF 6550 Series (Agilent Technologies) for high-resolution mass spectrometry experiments. Chromatographic separation of peptide or their fragments were performed using a Kinetex 2.6 µm EVO C18 column (150 × 2.1 mm, […]) from (Phenomenex, Torrance, USA) as stationary phase and water containing 0.1% formic acid (solvent A) and acetonitrile (solvent B) as mobile phase. The separation was performed in gradient elution as follows: isocratic; 0–0.5 min, 2 % B; 0.5–1 min, 2–6% B; 1–5 min, 6–15% B; 5–6 min, 15–35% B; 6–10 min, 35–98% B; 10–12 min, 98% B isocratic; 12–12.10, 98–2% B. For all runs, 10 μL of the sample (4 °C) was injected, and the flow rate was 0.350 mL/min and the column temperature was 25 °C.
# For in vitro simulated digestion experiments and Caco-2 monolayer samples, qTOF instrument was used to investigate the presence of unknown peptide fragments and previously in silico predicted peptide fragments by means of its accurate mass. Peptide and its fragments were semi-quantified using the chromatographic peak area observed in the extracted ion chromatograms using a 20 ppm mass window.
# [1] = tested on: trypsin, α-chymotrypsin, porcine pancreatic lipase and colipase; assay: In vitro simulated duodenal digestion (D60); assay type: in vitro ADME; settings: 60 min simulated duodenal digestion, pH 7, 37 °C
# Procedure: For the in vitro simulated peptide GI digestion, a two-stage hydrolysis process was carried out according to Martos et al.. […] was dissolved in simulated gastric fluid (35 mM NaCl at pH 2 for 15 min) and posteriorly subjected to digestion by porcine pepsin (E.C. 3.4.23.1, 3440 units/mg) at an enzyme/substrate ratio of 1: 20 w/w at 37 °C for 60 min. Gastric digestion with pepsin was stopped by adding 1 M NaHCO3 and pH was adjusted to 7.0 with NaOH 1 M (final protein concentration of 5 mg/mL). Aliquots of this gastric digest were collected (G60) and stored at −20 °C until analysis. Duodenal digestions were performed by using, as the starting material, the obtained gastric digests, with the addition of 1 M CaCl2, 0.25 M bis-Tris pH 6.5, 0.25 M bis-Tris pH 6.5, and a 0.125 M bile salts mixture containing equimolar quantities of sodium taurocholate and glycodeoxycholic acid. […]
# Samples obtained from in vitro peptide simulated digestion and Caco-2 monolayers were diluted 10 times with water (0.1% FA) and centrifuged (15,000 rpm, 15 min, 4 °C). Supernatants were directly analyzed by UHPLC-HRMS to avoid the loss of polar peptide fragments. […]
# [2] = Peptide presence in plasma after oral administration; assay type: in vivo; settings: Wistar rats, 10 mg/kg bw oral, plasma at 0, 30 and 60 min, pooled n = 6, SPE extraction, UHPLC-MS/MS (limit of detection 0.05 ppb) and UHPLC-HRMS
# Procedure: Male Wistar rats (17–20 weeks-old, weighing between 230 and 250 g) were obtained from Charles River Laboratories (Barcelona, Spain). Animals were maintained in pairs, at 22 °C with light/dark cycles of 12 h and were fed standard chow diet (AO4, Panlab, Barcelona, Spain) ad libitum during all the experiment. Animals were randomly divided and administered tap water (control group, n = 6) or 10 mg/kg body weight (bw) peptide ([…] group, n = 6) by gastric intubation after starvation of 12 h. The total volume of water or […] orally administered to the rats was 1 mL. […]
# Solid-phase extraction (SPE): Plasma samples (150 µL) were mixed with 25 µL of IFV*[…] […] Eluted samples were dried in a speed-vac concentrator (Thermo Fisher, Waltham, Massachusetts), USA), reconstituted in 100 µL of water (0.1 % FA and 0.1 % BSA), and analyzed by UHPLC-MS/MS. […]
# The obtained purified solutions from plasma and peptide digests G60 and D60 and from AP and BL chambers in Caco-2 experiment were analyzed using a UHPLC 1290 Infinity II Series coupled to a QqQ 6490 Series (Agilent Technologies, Santa Clara, CA, USA) for tandem mass experiments or a qTOF 6550 Series (Agilent Technologies) for high-resolution mass spectrometry experiments. […]
# T1 sequence (P00791 60-385): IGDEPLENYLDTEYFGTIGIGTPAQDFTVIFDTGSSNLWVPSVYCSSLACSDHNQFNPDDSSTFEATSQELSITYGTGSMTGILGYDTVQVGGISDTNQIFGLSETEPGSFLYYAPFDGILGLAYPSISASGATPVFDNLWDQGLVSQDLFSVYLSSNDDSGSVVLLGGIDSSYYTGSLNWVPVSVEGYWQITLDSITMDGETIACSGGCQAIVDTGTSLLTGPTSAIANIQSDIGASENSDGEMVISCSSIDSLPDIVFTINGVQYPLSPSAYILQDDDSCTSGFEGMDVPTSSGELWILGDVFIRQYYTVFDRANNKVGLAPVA
sequence,measurement,setting,value
AVFQHNCQE,Resistance to gastric digestion,"porcine pepsin; pepsin, pH 2, 37 °C, most intense signal in G60 was the native peptide",resistant to gastric digestion
same,Area G60 (chromatographic peak area),"porcine pepsin; simulated gastric fluid 35 mM NaCl pH 2, porcine pepsin enzyme/substrate 1:20 w/w, 37 °C, UHPLC-HRMS extracted ion chromatogram, 20 ppm window, semi-quantified, triplicate aliquots","5,236,186"
same,Fate after duodenal digestion,[1],mainly hydrolyzed into free amino acid residues
same,Presence of peptide or fragments in plasma,[2],neither the peptide nor their potential fragments were identified in the plasma samples

# From paper PMC7408493, “Implication of Opioid Receptors in the Antihypertensive Effect of a Novel Chicken Foot-Derived Peptide” (Biomolecules, 2020)
